In article PMC13422867, “An orally available PfPKG inhibitor blocks Plasmodium’s infection of the liver” (PLOS Pathogens, 2026):
Values joined by “and” are separate entries in the source; they are usually repeats but may differ in a detail not shown here. Equal entries are not always repeated. Where two headings read alike, the source gives them in different places. One block for each compound: values may come before it.

What was measured:
PfPKG [1] = target: PfPKG (Plasmodium falciparum, UniProt Q8I719); assay: PfPKG enzyme inhibition; assay type: biochemical; conditions: for IC50: Table 7, spread in parentheses not defined
P. cynomolgi hypnozoite = assay: Hypnozoite formation in primary simian hepatocytes, high-content imaging; assay type: cell-based, Plasmodium cynomolgi
Experimental: (§1) Liver stage antimalarial activity was evaluated using sporozoites from P. falciparum (NF54 strain) and P. cynomolgi bastianellii (B strain). P. falciparum-infected Anopheles stephensi mosquitoes were reared at WRAIR, while P. cynomolgi-infected Anopheles dirus mosquitoes were obtained from the Armed Forces Research Institute of Medical Sciences (AFRIMS), Thailand. Sporozoites were isolated by dissecting salivary glands under sterile conditions, followed by gentle mechanical disruption. Freshly isolated sporozoites were immediately used for hepatocyte infection.
(§2) Primary cryopreserved hepatocytes were selected based on host-parasite compatibility: primary simian hepatocytes (lot OQB) for P. cynomolgi and human hepatocytes (lot BGW) for P. falciparum (BioIVT Inc., Baltimore, MD, USA). Cells were thawed according to the manufacturer’s protocol and seeded into 384-well collagen-coated assay plates (Greiner Bio-One, Monroe, NC, USA) using InVitroGro CP plating medium (BioIVT). Seeding densities were optimized for uniform monolayer formation, and hepatocytes were allowed to adhere for 24–48 hours before infection. Sporozoites were added at a 1:1.1 hepatocyte-to-sporozoite ratio within 48 hours post-seeding. Automated robotic systems were used for media changes and compound additions to ensure assay consistency and minimize variability associated with manual pipetting.
(§3) Test compounds (PfPKG inhibitors) and assay drug controls (KDU-691 and tafenoquine) were solubilized in DMSO or PBS and serially diluted into 8- or 12-point, 2- or 3-fold series, achieving final assay concentrations ranging from 20 µM to 0.019 µM. Compounds were introduced using a calibrated pin tool controlled by robotic arms (V&P Scientific), ensuring a 1:1000 dilution into assay wells. Media were replenished daily with fresh drug-containing HCM. […]
(§4) Cells were fixed using 4% paraformaldehyde for 20 minutes at room temperature, followed by three PBS washes, and stored at 4°C until further processing. Parasite detection was performed using species-specific primary antibodies, with P. cynomolgi parasites labeled using a mouse monoclonal anti-Plasmodium GAPDH antibody (1.6 μg/mL, European Malaria Reagent Repository) and P. falciparum parasites detected using a rabbit polyclonal anti-PfHSP70 antibody (1:70 dilution, LS Bio, USA). […]
(§5) High-content imaging was performed using the Operetta CLS system (Revvity) and image analysis was performed with Harmony software version 4.9 (Revvity, Waltham, MA, USA). Images were acquired at 10x or 20x magnification using DAPI and TRITC fluorescence channels. Following the established protocol, parasites were classified as hypnozoites or schizonts based on fluorescence intensity (mean and maximum), morphological features (cell roundness and size), and segmentation criteria. […]

P. cynomolgi schizont = assay: Schizont formation in primary simian hepatocytes, high-content imaging; assay type: cell-based, Plasmodium cynomolgi
Experimental: as §1, §2, §3, §4, §5

[2] = Cellular cytotoxicity, hepatocyte nuclear counts; assay type: cell-based, simian; conditions: simian, primary cryopreserved simian hepatocytes (lot OQB); cellular cytotoxicity
Excerpt: as §2
(§6) Test compounds (PfPKG inhibitors) and assay drug controls (KDU-691 and tafenoquine) were solubilized in DMSO or PBS and serially diluted into 8- or 12-point, 2- or 3-fold series, achieving final assay concentrations ranging from 20 µM to 0.019 µM. Compounds were introduced using a calibrated pin tool controlled by robotic arms (V&P Scientific), ensuring a 1:1000 dilution into assay wells. Media were replenished daily with fresh drug-containing HCM. Compounds were added 1-hour post-infection (p.i.) (day 0) and administered daily for 3 days. Cells were fixed on day 6 p.i. of P. falciparum culture and day 8 for P. cynomolgi infected culture, coinciding with liver stage schizont maturation.
(§7) High-content imaging was performed using the Operetta CLS system (Revvity) and image analysis was performed with Harmony software version 4.9 (Revvity, Waltham, MA, USA). Images were acquired at 10x or 20x magnification using DAPI and TRITC fluorescence channels. Following the established protocol, parasites were classified as hypnozoites or schizonts based on fluorescence intensity (mean and maximum), morphological features (cell roundness and size), and segmentation criteria. Hepatocyte nuclei were identified using Hoechst 33342 staining. Background signal was captured in uninfected, stained wells and subjected to the same parasite detection algorithm. Estimate erroneous parasite counts were then subtracted from infected well counts. Hepatocyte viability was determined by quantifying nuclear counts per well using Hoechst stain intensity thresholds. […] An in-house built Python-based image analysis script identified parasite objects using predefined fluorescence intensity thresholds. […] Parasite size was quantified by calculating the average object area (µm²) of validated parasite structures per well. […] Dose-response inhibition and IC50 were calculated relative to in-plate negative controls (DMSO-treated wells). […]

CIT = target: T1, CIT (Homo sapiens, UniProt O14578); assay: KdElect binding affinity assay
T1 construct: purchased Eurofins (DiscoverX)
Experimental: Off-target kinase inhibition was assessed using the DiscoverX scanMAX (Eurofins) panel at 1 µM compound concentration. Binding affinities of CIT, ROCK1 and ROCK2 were evaluated using the KdElect assay (Eurofins).

P. falciparum 3D7 = assay: Asexual blood stage growth inhibition, SYBR Green I, 72 h; assay type: cell-based; conditions: Plasmodium falciparum, mean (standard error) of 3 biological replicates
Experimental: (§8) Asexual blood stage P. falciparum strains, including 3D7 and drug-resistant field isolates, were cultured using standard conditions in RPMI 1640 with 0.5% Albumax as described previously. EC₅₀ values were determined using a SYBR Green I fluorescence assay after 72 h of compound exposure. EC50 values were derived by nonlinear regression in GraphPad Prism version 10.

P. falciparum 7G8 = assay: as above; assay type: cell-based; conditions: Plasmodium falciparum, mean (standard error) of 3 biological replicates
Experimental: as §8

P. falciparum Dd2-B2 = assay: as above; assay type: cell-based; conditions: Plasmodium falciparum, mean (standard error) of 3 biological replicates
Experimental: as §8

P. falciparum K1 = assay: as above; assay type: cell-based; conditions: Plasmodium falciparum, mean (standard error) of 3 biological replicates
Experimental: as §8

P. falciparum TM90_C2B = assay: as above; assay type: cell-based; conditions: Plasmodium falciparum, mean (standard error) of 3 biological replicates
Experimental: as §8

[3] = system: P. falciparum CamWT and CamC580Y; conditions: ring-stage assays; cited from earlier work
[4] = system: primary simian hepatocytes; assay: Cellular cytotoxicity, hepatocyte nuclear counts; assay type: cell-based
Excerpt: as §2, §6, §7

[5] = system: P. berghei sporozoites (PbLuc-GFP); assay: In vivo chemoprotective efficacy against sporozoite liver infection; design: species or system Plasmodium berghei in mice
Experimental: In the first experiment, mice were administered three doses, intravenously (IV) or orally (PO), of compound (10 mg/kg) - two prior to sporozoite inoculation to block sporozoite invasion of hepatocytes and the third at 36 hpi to prevent egress of liver stages (Fig 3A). In vivo bioluminescent imaging (IVIS) of mice was utilized to detect and quantify relative parasitemia in the liver and flow cytometry was used to detect the appearance of blood stage parasites. Vehicle-treated mice were used as a negative control.
In vivo chemoprotective efficacy was evaluated using luciferase-expressing P. berghei ANKA sporozoites. […] Liver stage parasite burden was measured 42–48 h p.i. by bioluminescence imaging (IVIS Spectrum). Photon flux from the liver region was quantified using Living Image software. All animal procedures were approved by the Rutgers Institutional Animal Care and Use Committee (IACUC).

[6] = system: P. berghei sporozoites (PbLuc-GFP); assay: as above; design: species or system Plasmodium berghei in mice; conditions: Intravenous, 10 mg/kg x 3
PfPKG [7] = conditions: cited from earlier work
[8] = Plasmodium cynomolgi, Hepatocyte
[9] = from IC50 ≈ Kd, ∆G = -RTln(Kd), 300K

Sequence of PfPKG (Plasmodium falciparum, UniProt Q8I719) (Q8I719 whole entry): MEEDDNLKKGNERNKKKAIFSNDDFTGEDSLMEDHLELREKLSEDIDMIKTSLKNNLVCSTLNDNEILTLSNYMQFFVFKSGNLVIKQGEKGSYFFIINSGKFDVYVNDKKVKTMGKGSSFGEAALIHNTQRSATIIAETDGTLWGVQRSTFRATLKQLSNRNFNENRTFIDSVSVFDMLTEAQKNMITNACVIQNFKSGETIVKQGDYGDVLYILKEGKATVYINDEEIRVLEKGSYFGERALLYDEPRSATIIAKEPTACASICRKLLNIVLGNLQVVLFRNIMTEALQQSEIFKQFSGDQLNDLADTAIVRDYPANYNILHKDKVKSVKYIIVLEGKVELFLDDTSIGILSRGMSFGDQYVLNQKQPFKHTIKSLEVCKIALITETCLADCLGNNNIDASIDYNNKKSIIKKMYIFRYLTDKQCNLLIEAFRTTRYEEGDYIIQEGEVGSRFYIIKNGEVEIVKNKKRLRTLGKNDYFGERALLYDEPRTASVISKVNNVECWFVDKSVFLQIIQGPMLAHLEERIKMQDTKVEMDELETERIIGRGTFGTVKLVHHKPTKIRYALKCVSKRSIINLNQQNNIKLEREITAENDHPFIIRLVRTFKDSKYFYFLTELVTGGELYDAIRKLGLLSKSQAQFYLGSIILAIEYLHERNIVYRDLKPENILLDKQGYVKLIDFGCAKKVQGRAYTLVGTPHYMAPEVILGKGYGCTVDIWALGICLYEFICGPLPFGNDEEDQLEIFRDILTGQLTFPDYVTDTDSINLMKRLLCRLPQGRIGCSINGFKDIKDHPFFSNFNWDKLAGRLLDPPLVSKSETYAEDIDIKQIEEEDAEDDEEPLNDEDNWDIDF
T1 sequence (O14578 whole entry): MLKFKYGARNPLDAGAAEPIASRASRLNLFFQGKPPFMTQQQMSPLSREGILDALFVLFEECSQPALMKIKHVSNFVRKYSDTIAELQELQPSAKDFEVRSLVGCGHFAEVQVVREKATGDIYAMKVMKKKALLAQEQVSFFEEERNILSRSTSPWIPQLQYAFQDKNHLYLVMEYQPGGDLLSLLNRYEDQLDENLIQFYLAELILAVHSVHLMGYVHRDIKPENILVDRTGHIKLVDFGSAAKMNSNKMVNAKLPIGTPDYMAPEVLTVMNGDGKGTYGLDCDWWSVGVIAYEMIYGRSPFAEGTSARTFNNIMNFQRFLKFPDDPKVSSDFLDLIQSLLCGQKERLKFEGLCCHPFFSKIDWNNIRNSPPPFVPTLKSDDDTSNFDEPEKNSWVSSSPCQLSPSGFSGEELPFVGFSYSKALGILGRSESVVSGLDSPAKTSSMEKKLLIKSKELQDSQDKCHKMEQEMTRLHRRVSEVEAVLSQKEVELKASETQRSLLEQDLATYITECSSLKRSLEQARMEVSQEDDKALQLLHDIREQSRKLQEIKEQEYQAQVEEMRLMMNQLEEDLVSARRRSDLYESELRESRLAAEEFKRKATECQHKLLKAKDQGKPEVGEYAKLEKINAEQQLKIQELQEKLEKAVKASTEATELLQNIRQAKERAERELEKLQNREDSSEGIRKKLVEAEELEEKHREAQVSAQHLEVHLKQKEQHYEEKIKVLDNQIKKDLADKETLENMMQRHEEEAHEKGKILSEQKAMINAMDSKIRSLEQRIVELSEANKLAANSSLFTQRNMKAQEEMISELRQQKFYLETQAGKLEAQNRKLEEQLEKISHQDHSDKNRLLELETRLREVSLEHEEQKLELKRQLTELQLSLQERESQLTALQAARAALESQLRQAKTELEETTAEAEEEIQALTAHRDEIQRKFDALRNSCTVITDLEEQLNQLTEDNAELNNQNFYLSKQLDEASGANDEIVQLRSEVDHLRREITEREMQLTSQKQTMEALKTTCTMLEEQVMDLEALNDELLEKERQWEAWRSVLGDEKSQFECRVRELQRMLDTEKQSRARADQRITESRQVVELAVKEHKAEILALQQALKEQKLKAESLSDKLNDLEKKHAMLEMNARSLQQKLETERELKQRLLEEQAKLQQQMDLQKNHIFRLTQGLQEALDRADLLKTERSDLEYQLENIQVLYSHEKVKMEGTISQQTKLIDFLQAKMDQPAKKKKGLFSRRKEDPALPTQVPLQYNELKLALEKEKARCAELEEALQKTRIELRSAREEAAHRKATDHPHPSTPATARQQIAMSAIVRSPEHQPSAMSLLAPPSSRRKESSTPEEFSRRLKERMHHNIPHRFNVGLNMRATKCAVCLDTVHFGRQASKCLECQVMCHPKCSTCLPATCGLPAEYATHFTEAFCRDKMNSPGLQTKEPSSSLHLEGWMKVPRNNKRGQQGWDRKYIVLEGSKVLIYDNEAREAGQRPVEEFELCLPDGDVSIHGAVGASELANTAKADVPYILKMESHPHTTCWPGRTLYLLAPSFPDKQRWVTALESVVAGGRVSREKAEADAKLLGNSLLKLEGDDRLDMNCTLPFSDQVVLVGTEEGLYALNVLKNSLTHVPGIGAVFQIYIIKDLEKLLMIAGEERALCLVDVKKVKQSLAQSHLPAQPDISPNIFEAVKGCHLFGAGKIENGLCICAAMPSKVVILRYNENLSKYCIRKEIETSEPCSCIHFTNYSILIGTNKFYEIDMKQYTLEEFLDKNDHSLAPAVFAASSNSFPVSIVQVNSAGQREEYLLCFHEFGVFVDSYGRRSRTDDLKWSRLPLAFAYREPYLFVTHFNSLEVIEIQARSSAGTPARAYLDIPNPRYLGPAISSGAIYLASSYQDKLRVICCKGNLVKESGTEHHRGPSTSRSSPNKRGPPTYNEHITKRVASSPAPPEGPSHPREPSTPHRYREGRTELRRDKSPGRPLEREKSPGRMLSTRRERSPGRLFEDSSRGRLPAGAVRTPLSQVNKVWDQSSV

IC50 (PfPKG [1]): 256 nM
SMILES: CCC(O)(CC)c1cc(-c2[nH]c(C3CCN(C)CC3)cc2-c2ccncc2)ccc1F [RUPB-73, 3-(2-Fluoro-5-(5-(1-methylpiperidin-4-yl)-3-(pyridin-4-yl)-1H-pyrrol-2-yl)phenyl)pentan-3-ol]

SMILES: COc1cc(C)c2c(Oc3cccc(C(F)(F)F)c3)c(OC)cc(NC(C)CCCN)c2n1 (stereo not drawn) [Tafenoquine, tafenoquine]
IC50 (P. cynomolgi hypnozoite; [8]): 85 nM
IC50 (P. cynomolgi schizont; [8]): 41 nM
CC50 at 3 days [2]: 3600 nM

improvement in PfPKG IC50 compared to RUPB-61 (PfPKG [1]): 10 fold
PfPKG (ΔG) (PfPKG [1]; [9]): -12.1 kcal/mol
PfPKG Experimental Binding (ΔG) (PfPKG [1]; [9]): -12.1 kcal/mol
Kd for CIT higher compared to RUPB-61 (CIT; range over RUPB-18, -34, -69): 5–125 fold
Kd (CIT; read-out: CIT Experimental Kd): 210 nM
SMILES: CN1CCC(c2cc(-c3ccncc3)c(-c3ccc(F)c(C(C)(C)O)c3)[nH]2)CC1 [RUPB-69, 2-(2-Fluoro-5-(5-(1-methylpiperidin-4-yl)-3-(pyridin-4-yl)-1H-pyrrol-2-yl)phenyl)propan-2-ol]

SMILES: C[C@H]1CN(C)CC[C@H]1c1cc(-c2ccncc2)c(-c2ccc(F)cc2)[nH]1.Cl.Cl [RUPB-58, 4-{5-[(3R,4R)-1,3-Dimethylpiperidin-4-yl]-2-(4-fluorophenyl)-1H-pyrrol-3-yl}pyridine Dihydrochloride]
IC50 (P. falciparum 3D7): 170 nM
IC50 (P. falciparum 7G8): 57 nM
IC50 (P. falciparum Dd2-B2): 467 nM
IC50 (P. falciparum K1): 239 nM
IC50 (P. falciparum TM90_C2B): 122 nM
IC50 against DHA-sensitive CamWT compared with DHA-resistant CamC580Y [3]: similar

SMILES: CN1CCC(c2cc(-c3ccncc3)c(-c3ccc(F)cc3)[nH]2)CC1 [TSP, reference compound]
IC50 (P. cynomolgi hypnozoite): 400 nM
IC50 (P. cynomolgi schizont): 320 nM
CC50 [4]: 8500 nM
mice that did not show blood stage parasites for 3 weeks pi ([5]; 3 intravenous doses, 10 mg/kg): 2/5
mice displaying liver infection at 44 hpi ([5]; IV, 10 mg/kg x 3, bioluminescent imaging): 3/5
Prepatent period mean ± sd ([5]; Intravenous, 10 mg/kg x 3, blood stages by flow cytometry, 10 mg/kg): 4.3 days and 4.3 ± 1.1 days
No. of mice patent by D21/ No. of mice inoculated [6]: 3/5

IC50 (PfPKG [1]): 17.2 nM
SMILES: COC(=O)c1cc(-c2[nH]c(C3CCN(C)CC3)cc2-c2ccncc2)ccc1F [RUPB-72, Methyl 2-fluoro-5-(5-(1-methylpiperidin-4-yl)-3-(pyridin-4-yl)-1H-pyrrol-2-yl)benzoate]

SMILES: C[C@@H]1CN(C)CC[C@H]1c1cc(-c2ccncc2)c(-c2ccc(F)cc2)[nH]1.Cl.Cl [RUPB-60, 4-{5-[(3S,4R)-1,3-Dimethylpiperidin-4-yl]-2-(4-fluorophenyl)-1H-pyrrol-3-yl}pyridine Dihydrochloride]
IC50 (P. falciparum 3D7): 50 nM
IC50 (P. falciparum 7G8): 28 nM
IC50 (P. falciparum Dd2-B2): 144 nM
IC50 (P. falciparum K1): 81 nM
IC50 (P. falciparum TM90_C2B): 80 nM
IC50 against PfPKG variants, RUPB-60 compared with RUPB-61 (PfPKG [7]): similar
IC50 against DHA-sensitive CamWT compared with DHA-resistant CamC580Y [3]: similar
